The values below come from US20160029628A1, “COMPOUNDS, COMPOSITIONS, AND METHODS FOR REPELLING AN INSECT FROM AN AREA,ARTICLE, AND/OR STRUCTURE” (BAYER CROPSCIENCE LP, priority 2013, published 2016).

In data set [1] the test system is honeybees. Description: Honeybee repellency at feeding stations, repellent in 50% sucrose solution. The class given is in vivo. How it is done:
FIG. 1 describes the feeding station arrangement (A and B) for the honeybee repulsion experiments described herein. As set forth in FIG. 1, panel (A) sets forth the bee cage positions on the left portion of panel (A) with the randomized feeding station positions on the right portion of panel (A). Panel (B) sets forth an alignment of the randomized feeding station positions with a distance of two meters between feeding stations. A total of eight feeding stations were evaluated at a ten meter distance in front of the respective bee hives. The feeding stations were placed two meters apart from one another.
Honeybees were trained to deep feeders (eight positions), each containing a 50% sucrose solution for one day. After the honeybees were trained to each feeder, the 50% sucrose feeder at randomized positions 1-8 was replaced with a shallow feeder containing a combination of repelling compounds and a 50% sucrose solution according to Table 3. In accordance with FIGS. 5 and 6, 2% by weight of Camphor oil (T4), Ajowan oil (T5), Camphor powder (T6), Rosemary oil (T7), and 2-Decanone (T8) in combination with a 50% sucrose treatment were added to feeders on day two.
Table 3 describes active agents evaluated for bee repulsion and their randomized feeding station positions. As described in Table 3, T1 (control), T2 (control), T3 (control), T4 (Camphor oil), T5 (Ajowan oil), T6 (Camphor powder), T7 (Rosemary oil), and T8 (2-Decanone).
FIG. 5 evaluates the number of bees visiting a respective feed station over a time interval. FIG. 6 sets forth the mean number of honeybees visiting feeding station over a period of four hours.

Data set [2] is described as follows: Stability test of Poncho 600 with Eugenol, clothianidin content by HPLC. The class given is physicochemical. The settings on record: combined with Eugenol; up to 54° C. for seven days. How it is done: Table 4 describes a stability test with a combination of Eugenol and Poncho evaluated at room temperature, 40° C., and 54° C. at zero time, 3 days, and 7 days as confirmed by high performance liquid chromatography (HPLC).

The nature of data set [3]: Stability test of Poncho 600 with α-terpineol, clothianidin content by HPLC. The settings on record: combined with alpha-terpineol; up to 54° C. for eight days. It counts as physicochemical. How it is done:
Table 5 describes a stability test with a combination of α-terpineol and Poncho 600 evaluated at room temperature, 40° C., and 54° C. at zero time, 2 days, and 8 days as confirmed by HPLC.

In the case of `CCCCCCCCC(C)=O` [Compound 2-decanone, 2-decanone], in data set [1] (2% by weight with 50% sucrose, 4 hours), the “repellency over the full 4 hour assessment period” value is “highly repellent”. Further, the “repellency at 24 hours” value in data set [1] (2% by weight with 50% sucrose) is given as “still repellent”; in data set [1] (2% by weight with 50% sucrose, listed as 2-Decanone), “exhibited repellency”. Further, the “repellent effect relative to comparators” value in data set [1] (relative to camphor oil, ajowan oil, camphor powder, or rosemary oil, FIGS. 5-6) is recorded as “larger repellent effect”.

In the case of `CN/C(=N\[N+](=O)[O-])NCc1cnc(Cl)s1` [clothianidin], the “chemical stability of clothianidin content” value in data set [2] and in data set [3] was “exhibited chemical stability” in each case.
